Measured values: patent US5756505A, “N-acylpiperazine derivative, antibacterial drug and anti-ulcer drug” (Shiseido Co., Ltd., priority 1995, dated 1998)
Where two headings read alike, the source gives them in different places.

Key:
[1] = test system: gastric mucosa; experiment: PD: Gastric Mucosal Integrity Test; format: in vivo, rat (male Crj:SD); details: rat, 100 mg/kg into ex vivo chamber, 60 minutes
Method: PD: Gastric Mucosal Integrity Test
In this case, since the sample compound has a necrotizing effect, it is inappropriate as an anti-ulcer medicament.
Therefore, the gastric mucosal potential difference (PD), which reflects the integrity of the gastric mucosa, is measured so as to confirm that the sample compound has no damasing effect on gastric mucosa, which is toxicity at gastric mucosal level.
Male Crj:SD rats (7 to 8-week-old) was fasted overnight, but allowed free access to water, and then, under urethane anesthesia (1.25 g/kg, i.p.), fixed to a cork board on its back. The abdomen of each rat was incised, and a small incision was made in the forestomach. Then, the inside of the stomach was washed with physiological saline heated at 37° C. From the forestomach, along the greater curvature thereof, the stomach was incised without damaging blood vessels. After the height of the cork board was adjusted on a jack, the stomach was mounted on ex vivo chamber. The area of the gastric mucosa exposed to the inside of this chamber was 2.5 cm^2. The inside of the chamber was perfused with physiological saline warmed at 37° C. by micro tube pump. By using an agar bridge containing 3M KCl, the potential difference between the chamber and the abdominal cavity was measured by a PD meter. Here, the rectal temperature was measured to control the body temperature during the experiment. After the PD was sufficiently stabilized, the perfusate was stopped and then 100 mg/10 ml/kg of the sample compound dissolved or suspended in an aqueous solution of 0.5% sodium carboxymethyl cellulose or 0.05% Tween 80 were administered into the chamber, while PD was recorded for 60 minutes. To a control, the vehicle was administered.
The change in PD during 60 minutes after the administration of 100 mg/kg of the sample compound was collectively studied and, with reference to the positive control, classified into 5 levels as follows:
5: Same as the control with no recognizable damage at all.
3: Though a weak decrease in PD and a possibility of a weak mucosal damage is recognized, there is no substantial problem.
2: Medium degree of decrease in PD is found and a mucosal damage is recognized.
1: Heavy degree of decrease in PD is found and a remarkable mucosal damage is recognized.

[2] = test system: isolated gastric fundic gland; experiment: CAP: Acid Secretion Inhibition Test In Vitro ([14C]-aminopyrine uptake); format: cell-based, rabbit (male Japanese White); details: for inhibition at 10 µM: Oryctolagus cuniculus, read-out: CAP: acid secretion inhibitory rate
Method: CAP: Acid Secretion Inhibition Test In Vitro
The acid secretion inhibitory activity in a cell level is studied. It can also be used for studying the mechanism of the effect. […]
ii-a) Preparation of isolated gastric fundus gland suspension
First, an isolated gastric fundic gland sample was prepared. Namely, a male Japanese White rabbit (2.5 to 3 kg) was anesthetized to death with Nembutal™ and then the abdomen was incised. Immediately thereafter, the stomach was removed and, after its pyloric and cardiac antrum were severed, incised along its greater curvature into two sheets. The gastric contents adhering to the mucosal surface was washed out with ice-cooled PBS (-) and then carefully washed therein. The gastric wall was spread on a cork board with its mucosal surface facing up and the feed and mucus thereon were completely removed with sterile gauze. The mucosa was separated therefrom by a spatula and then collected in ice-cooled PBS (-). After being washed twice with PBS (-), the mucosa was minced into 2-3mm^3 pieces by scissors. These pieces were further washed twice with a nutrient solution. The nutrient solution comprises 132.4 mM of NaCl, 5.4 mM of KCl, 5 mM of Na2 HPO4 ·12H2 O, 1 mM of NaH2 PO4 ·2H2 O, 1.2 mM of MgSO4, 1 mM of CaCl2, 25 mM of HEPES, 2mg/ml of glucose, and 1 mg/ml of BSA. Into 70 ml of the nutrient solution containing 1 mg/ml of collagenase, minced mucosal pieces were dispersed and intensely stirred in a conical flask with a stirrer at 37° C. for 40 to 60 minutes. During this period, 100% O2 was sprayed on the nutrient solution surface and the pH was appropriately measured such that it was immediately adjusted to pH 7.4, when the value was therebelow, with a base. The nutrient solution was added to the reaction solution so as to attain the total amount of about 200 ml. After being filtered through a mesh, the suspension was divisionally introduced into 50 ml centrifuge tubes and left for 15 minutes such that gastric fundic gland was deposited. The supernatant was repeatedly removed by an aspirator, dispersed in the nutrient solution, and then left such that the gastric fundic gland was washed three times. At this time, without using a pipette, the suspension was alternately introduced into two centrifuge tubes so as to effect dispersion. The number of cells was counted under microscope and adjusted to 1.6×10^6 cells/ml. […]
ii-b) [^14 C]-aminopyrine uptake test
Then, [^14 C]-aminopyrine uptake test was performed. After an Eppendorf tube was weighed, 10 μl (final concentration: 10^-5 M) of histamine dissolved in the above-mentioned nutrient solution, 10 μl (final concentration: 10^-5 M) of the test compound dissolved in DMSO, and 10 μl (final concentration: 0.05 μCi/ml) of [^14 C]-aminopyrine diluted with the nutrient solution were introduced therein and then 970 μl of the isolated gastric fundic gland suspension prepared above were added thereto. Subsequently, this mixture was shaken at 37° C. for 40 minutes at 125 cycles/minute. After being centrifuged for 30 minutes 200 μl of its supernatant was collected into a mini-vial, while the rest was removed by an aspirator. The gland pellet was completely dried as the tube with its lid being opened was kept for one night in a drying oven at 80° C. and then the lid was closed and the weight was determined at room temperature. Then 100 μl of 1N KOH were added thereto and the tube with its lid being closed was treated at 60° C. for 1 to 2 hours so as to dissolve the pellet. Then, the contents thereof were transferred to a mini-vial. Into the mini-vial containing the supernatant or gland pellet, 4 ml of Atomlite™ were added and then the radioactivity was measured by a liquid scintillation counter. Here, after the radioactivity of the gland pellet was corrected by using a sample in which 20 mM of NaSCN were added so as to cancel the hydrogen ion concentration gradient, the integration ratio of aminopyrine specifically trapped by the gland pellet was calculated. […]

[3] = final concentration 10^-5 M, histamine 10^-5 M, rabbit gastric fundic gland

SMILES	PD: change in gastric mucosal potential difference, level [1]	inhibition at 10 µM [2, 3]	CAP: acid secretion inhibitory rate [2, 3]	inhibition at 10 µM [2]
CC(C)Cc1cc(C(=O)N2CCN(CC(C)C)CC2)ccc1OCc1ccc([N+](=O)[O-])cc1.Cl [Example 13, 1-isobutyl-4-[3-isobutyl-4-(4-nitrobenzyloxy)benzoyl]piperazine hydrochloride]	2	–	–	–
CC(C)CN1CCN(C(=O)c2ccc(OCc3ccccc3)cc2)CC1 [Example 3, 1-(4-benzyloxybenzoyl)-4-isobutylpiperazine]	5	85%	–	–
C=C(C)Cc1cc(C(=O)N2CCN(CC(C)C)CC2)ccc1OCc1ccc(F)cc1.Cl [Example 4, 1-[4-(4-fluorobenzyloxy)-3-methallylbenzoyl]-4-isobutylpiperazine hydrochloride]	–	94%	–	–
Cc1cccc(COc2ccc(C(=O)N3CCN(CC(C)C)CC3)cc2CC(C)C)c1F.Cl [Example 12, 1-[4-(2-fluoro-3-methylbenzyloxy)-3-isobutylbenzoyl]-4-isobutylpiperazine hydrochloride]	2	100%	–	–
CC(C)Cc1cc(C(=O)N2CCN(CC(C)C)CC2)ccc1OCc1ccc(F)cc1.Cl [Example 22, 1-[4-(4-fluorobenzyloxy)-3-isobutylbenzoyl]-4-isobutylpiperazine hydrochloride]	5	–	98%	–
CC(C)Cc1cc(C(=O)N2CCN(CC(C)C)CC2)ccc1OCc1ccc(Cl)cc1 [Example 17, 1-[4-(4-chlorobenzyloxy)-3-isobutylbenzoyl]-4-isobutylpiperazine]	4	99%	–	–
CC(C)Cc1cc(C(=O)N2CCN(CC(C)C)CC2)ccc1OCc1ccc(F)c(F)c1 [Example 26, 1-[4-(3,4-difluorobenzyloxy)-3-isobutylbenzoyl]-4-isobutylpiperazine]	–	–	99%	–
CC(C)Cc1cc(C(=O)N2CCN(CC(C)C)CC2)ccc1OCc1ccccc1F [Example 18, 1-[4-(2-fluorobenzyloxy)-3-isobutylbenzoyl]-4-isobutylpiperazine]	3	100%	–	–
CC(C)Cc1cc(C(=O)N2CCN(C(=O)C(C)C)CC2)ccc1OCc1ccc(F)cc1 [Example 6, 1-[4-(4-fluorobenzyloxy)-3-isobutylbenzoyl]-4-isobutyrylpiperazine]	–	57%	–	–
CC(C)Cc1cc(CN2CCN(CC(C)C)CC2)ccc1OCc1ccc(F)cc1.Cl.Cl [Example 20, 1-[4-(4-fluorobenzyloxy)-3-isobutylbenzyl]-4-isobutylpiperazine dihydrochloride]	2	100%	–	–
COc1ccc(COc2ccc(C(=O)N3CCN(CC(C)C)CC3)cc2CC(C)C)cc1 [Example 14, 1-isobutyl-4-[3-isobutyl-4-(4-methoxybenzyloxy)benzoyl]piperazine]	–	100%	–	–
CC(C)CN1CCN(C(=O)c2ccc(OCc3ccc(F)cc3)cc2)CC1 [Example 5, 1-[4-(4-fluorobenzyloxy)benzoyl]-4-isobutylpiperazine]	–	–	96%	–
CC(C)Cc1cc(C(=O)N2CCN(CC(C)C)CC2)ccc1OCc1ccccc1F.Cl [Example 19, 1-[4-(2-fluorobenzyloxy)-3-isobutylbenzoyl]-4-isobutylpiperazine hydrochloride]	2	–	95%	–
CC(C)Cc1cc(C(=O)N2CCN(CCO)CC2)ccc1OCc1ccc(F)cc1 [Example 9, 1-[4-(4-fluorobenzyloxy)-3-isobutylbenzoyl]-4-(2-hydroxyethyl)piperazine]	2	100%	–	–
CC(C)Cc1cc(C(=O)N2CCN(CC(C)C)CC2)ccc1OCc1ccc(F)c(F)c1.Cl [Example 23, 1-[4-(3,4-difluorobenzyloxy)-3-isobutylbenzoyl]-4-isobutylpiperazine hydrochloride]	–	99%	–	–
CC(C)Cc1cc(C(=O)N2CCN(CC(C)C)CC2)ccc1OCc1ccc(F)cc1 [Example 21, 1-[4-(4-fluorobenzyloxy)-3-isobutylbenzoyl]-4-isobutylpiperazine]	5	100%	–	–
CC(C)Cc1cc(C(=O)N2CCN(CC(C)C)CC2)ccc1OCc1ccc(F)cc1F.Cl [Example 24, 1-[4-(2,4-difluorobenzyloxy)-3-isobutylbenzoyl]-4-isobutylpiperazine hydrochloride]	2	99%	–	–
CC(C)Cc1cc(C(=O)N2CCN(CC(C)C)CC2)ccc1OCc1ccc(F)cc1F [Example 27, 1-[4-(2,4-difluorobenzyloxy)-3-isobutylbenzoyl]-4-isobutylpiperazine]	–	–	99%	–
CC(C)CN1CCN(C(=O)c2ccc(OCc3ccc(F)cc3)cc2)CC1.Cl [Example 2, 1-[4-(4-fluorobenzyloxy)benzoyl]-4-isobutylpiperazine hydrochloride]	2	99%	–	–
CC(C)Cc1cc(CC(=O)N2CCN(CC(C)C)CC2)ccc1OCc1ccccc1 [Example 15, 1-(4-benzyloxy-3-isobutylphenylacetyl)-4-isobutylpiperazine]	–	–	–	99%
CC(C)Cc1cc(C(=O)N2CCN(CC(C)C)CC2)ccc1OCc1ccccc1 [Example 16, 1-(4-benzyloxy-3-isobutylbenzoyl)-4-isobutylpiperazine]	5	98%	–	–
CC(C)CN1CCN(C(=O)c2ccc(OCc3ccc(F)cc3)c([N+](=O)[O-])c2)CC1.Cl [Example 8, 1-[4-(4-fluorobenzyloxy)-3-nitrobenzoyl]-4-isobutylpiperazine hydrochloride]	2	100%	–	–
CC(C)Cc1cc(C(=O)N2CCN(CC(C)C)CC2)ccc1OCc1ccc(F)cc1.O=C(O)C(=O)O [Example 25, 1-[4-(4-fluorobenzyloxy)-3-isobutylbenzoyl]-4-isobutylpiperazine oxalate]	–	–	95%	–
